Experimental data as given in patent publication US9981928B2, “Aryl sulfide derivatives and aryl sulfoxide derivatives as acaricides and insecticides” (BAYER CROPSCIENCE AKTIENGESELLSCHAFT, priority 2013, dated 2018).
Where two headings read alike, the source gives them in different places.

Legend:
[1] = system: greenhouse red spider mite (Tetranychus urticae); assay: Tetranychus urticae spray test, OP-resistant (TETRUR), bean leaf disks; format: in vivo; conditions: for pest or weed control at 500 g/ha: Tetranychus urticae, foliar, 144 h, read-out: efficacy in %
Procedure, shortened: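 Bean leaf disks carrying all stages of OP-resistant Tetranychus urticae sprayed with compound in acetone/dimethylformamide diluted in emulsifier water. Kill assessed after 6 days as % efficacy, 100% meaning all mites dead.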

[2] = log P determination by HPLC on reversed-phase columns (C 18), analogously to OECD Guideline 117; format: physicochemical; conditions: for logP (HCOOH): LC-MS in the acidic range, pH 2.7, 0.1% aqueous formic acid / acetonitrile; for logP (HCOOH) / logP (neutral): HPLC reversed-phase C 18; for logP (neutral): LC-MS in the neutral range, pH 7.8, 0.001 molar aqueous ammonium hydrogencarbonate / acetonitrile; for chromatographic logP: reversed-phase C18 HPLC column
Procedure, shortened: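 Reversed-phase C18 HPLC per OECD 117 with LC-MS detection and a linear 10→95% acetonitrile gradient. Acidic log P run at pH 2.7 with 0.1% formic acid in both eluents. Neutral log P run at pH 7.8 with 0.001 M aqueous ammonium hydrogencarbonate.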

[3] = bean leaf disks, application rate 100 g/ha, after 6 days
[4] = bean leaf disks, application rate 500 g/ha, after 6 days
[5] = acidic range, pH 2.7, 0.1% aqueous formic acid and acetonitrile, read-out: log P[a] / log P(HCOOH)
[6] = neutral range, pH 7.8, 0.001 molar aqueous ammonium hydrogencarbonate and acetonitrile, read-out: log P[b] / log P(neutral)

chromatographic logP [2, 5]	chromatographic logP [2, 6]	SMILES	efficacy in % [1, 3]	logP (HCOOH) [2]	logP (neutral) [2]	efficacy in % [1, 4]	pest or weed control at 500 g/ha [1, 4]	pest or weed control at 500 g/ha [1]
		Cc1cc(F)c(-n2c(=O)n(C(C)(C)C)c(=O)n2C)cc1SCC(F)(F)F [Example 94]	90%	3.85	3.82			
		Cn1c(=O)n(C2CC2)c(=O)n1-c1ccc(Br)c(SCC(F)(F)F)c1 [Example 46]		3.11	3.05	100%		
		C=CCn1c(=O)n(CC(F)(F)F)n(-c2cc([S+]([O-])CC(F)(F)F)c(C)cc2F)c1=O (centres unmarked) [Example 166]		2.72	2.89	90%		
		Cc1ccc(-n2c(=O)n(C(C)(C)C)c(=O)n2C)cc1[S+]([O-])CC(F)(F)F (centres unmarked) [Example 139]		2.71	2.70	100%		
2.96	2.92	Cc1cc(F)c(N2C(=O)N(C)C(C)(C)C2=O)cc1SCC(F)(F)F [Example 18, 3-{2-Fluoro-4-methyl-5-[(2,2,2-trifluoroethyl)sulfanyl]phenyl}-1,5,5-trimethylimidazolidine-2,4-dione]					100%	
2.4	2.39	Cc1cc(F)c(-n2c(=O)n(C)n(C)c2=O)cc1SCC(F)(F)F [Example 116, 4-{2-Fluoro-4-methyl-5-[(2,2,2-trifluoroethyl)sulfanyl]phenyl}-1,2-dimethyl-1,2,4-triazolidine-3,5-dione]					100%	
		COc1ccc(-n2c(=O)n(C)c(=O)n2C)cc1[S+]([O-])CC(F)(F)F (centres unmarked) [Example 32]		1.58	1.54	100%		
		COCCCn1c(=O)n(C)n(-c2cc(SCC(F)(F)F)c(C)cc2F)c1=O [Example 159]		2.96	2.95	100%		
		Cc1ccc(-n2c(=O)n(C3CC3)c(=O)n2Cc2ccccc2)cc1SCC(F)(F)F [Example 90]		3.81	3.71	100%		
		CCn1c(=O)n(C)c(=O)n1-c1cc([S+]([O-])CC(F)(F)F)c(C)cc1F (centres unmarked) [Example 98]		1.93	1.91	90%		
		Cc1cc(F)c(-n2c(=O)n(C3CC3)c(=O)n2C)cc1[S+]([O-])CC(F)(F)F (single isomer, unassigned) [Example 151]		1.98	1.88	90%		
		CCn1c(=O)n(C)n(-c2ccc(C)c(SCC(F)(F)F)c2)c1=O [Example 131]		3.00	2.97	90%		
		Cc1cc(F)c(N2C(=O)C(=O)N(CC(C)C)C2=S)cc1[S+]([O-])CC(F)(F)F (centres unmarked) [Example 194]		3.56	3.53	90%		
1.64		Cc1cc(F)c(N2CCOC2=O)cc1[S+]([O-])CC(F)(F)F (centres unmarked) [Example 105, 3-[2-Fluoro-4-methyl-5-(2,2,2-trifluoroethylsulfinyl)phenyl]oxazolidin-2-one]					90%	
3.03		CCn1c(=O)n(-c2cc(SCC(F)(F)F)c(C)cc2F)c(=O)n1CC [Example 118, 1,2-Diethyl-4-{2-fluoro-4-methyl-5-[(2,2,2-trifluoroethyl)sulfanyl]phenyl}-1,2,4-triazolidine-3,5-dione]					100%	
		CCn1c(=O)n(C(C)C)c(=O)n1-c1ccc(C)c(SCC(F)(F)F)c1 [Example 133]		3.77	3.73	100%		
3.22	1.73	Cc1cc(F)c(N2C(=O)C(=O)N(CC(F)F)C2=O)cc1SCC(F)(F)F [Example 101, 1-(2,2-Difluoroethyl)-3-[2-fluoro-4-methyl-5-[(2,2,2-trifluoroethyl)sulfanyl]phenyl]imidazolidine-2,4,5-trione]					100%	
2.84	2.79	Cc1cc(F)c(N2C(=O)C(C)(C)C(=O)N2C)cc1SCC(F)(F)F [Example 174, 1-{2-Fluoro-4-methyl-5-[(2,2,2-trifluoroethyl)sulfanyl]phenyl}-2,4,4-trimethylpyrazolidine-3,5-dione]					100%	
1.93	1.89	Cc1cc(F)c(N2CC(C)OC2=O)cc1[S+]([O-])CC(F)(F)F (centres unmarked) [Example 109, 3-[2-Fluoro-4-methyl-5-(2,2,2-trifluoroethylsulfinyl)phenyl]-5-methyloxazolidin-2-one]					100%	

chromatographic logP [2, 5]	chromatographic logP [2, 6]	SMILES	efficacy in % [1, 3]	logP (HCOOH) [2]	logP (neutral) [2]	efficacy in % [1, 4]	pest or weed control at 500 g/ha [1, 4]	pest or weed control at 500 g/ha [1]
		Cc1cc(F)c(-n2c(=O)n(C)c(=O)n2C(C)C)cc1SCC(F)(F)F [Example 62]		3.29	3.23	90%		
2.92		Cc1cc(F)c(N2C(=O)OCC2C)cc1SCC(F)(F)F (centres unmarked) [Example 108, 3-[2-Fluoro-4-methyl-5-(2,2,2-trifluoroethylsulfanyl)phenyl]-4-methyloxazolidin-2-one]					90%	
2.71		CCn1c(=O)n(-c2cc(SCC(F)(F)F)c(C)cc2F)c(=O)n1C [Example 122, 1-Ethyl-4-{2-fluoro-4-methyl-5-[(2,2,2-trifluoroethyl)sulfanyl]phenyl}-2-methyl-1,2,4-triazolidine-3,5-dione]					90%	
		Cc1cc(F)c(N2C(=O)C(=O)N(CC(C)(C)C)C2=S)cc1SCC(F)(F)F [Example 192]		4.89	4.80	90%		
3.35		Cc1cc(F)c(N2C(=O)OC(C)(C)C2=O)cc1SCC(F)(F)F [Example 111, 3-[2-Fluoro-4-methyl-5-(2,2,2-trifluoroethylsulfanyl)phenyl]-5,5-dimethyloxazolidine-2,4-dione]					90%	
2.52	2.45	Cc1cc(F)c(N2C(=O)CCC2=O)cc1SCC(F)(F)F [Example 19, 1-{2-Fluoro-4-methyl-5-[(2,2,2-trifluoroethyl)sulfanyl]phenyl}pyrrolidine-2,5-dione]					100%	
		Cc1cc(F)c(-n2c(=O)n(-c3ccccc3)c(=O)n2C)cc1SCC(F)(F)F [Example 162]	100%	3.42	3.27			
		Cc1ccc(-n2c(=O)n(C)c(=O)n2C(C)C)cc1SCC(F)(F)F [Example 61]		3.33	3.27	90%		
		Cc1cc(F)c(-n2c(=O)n(-c3cccc(C(F)(F)F)c3)c(=O)n2C)cc1SCC(F)(F)F [Example 76]		4.09	3.94	100%		
1.54	1.5	Cc1cc(F)c(-n2c(=O)n(C)n(C)c2=O)cc1[S+]([O-])CC(F)(F)F (centres unmarked) [Example 117, 4-{2-Fluoro-4-methyl-5-[(2,2,2-trifluoroethyl)sulfinyl]phenyl}-1,2-dimethyl-1,2,4-triazolidine-3,5-dione]					90%	
		Cc1cc(F)c(N2C(=O)C(=O)N(CC(C)C)C2=S)cc1SCC(F)(F)F [Example 191]		4.62	4.54	100%		
		Cc1cc(F)c(N2C(=O)C(=O)N(CC(C)(C)C)C2=S)cc1[S+]([O-])CC(F)(F)F (centres unmarked) [Example 195]		3.85	3.79	90%		
		C=CCn1c(=O)n(-c2cc(SCC(F)(F)F)c(C)cc2F)c(=O)n1C [Example 125]		2.91		100%		
		C=CCn1c(=O)n(C2CC2)c(=O)n1-c1cc([S+]([O-])CC(F)(F)F)c(C)cc1F (centres unmarked) [Example 165]		2.32	2.30	90%		
		CCn1c(=O)n(C(C)(C)C)c(=O)n1-c1cc([S+]([O-])CC(F)(F)F)c(C)cc1F (centres unmarked) [Example 137]		3.02	2.96	90%		
		Cc1cc(F)c(-n2c(=O)n(C(C)C)c(=O)n2C(C)(C)C)cc1SCC(F)(F)F [Example 143]			4.56	100%		
		Cc1cc(F)c(-n2c(=O)n(-c3ccccc3)c(=O)n2C)cc1[S+]([O-])CC(F)(F)F (centres unmarked) [Example 163]		2.44	2.38	90%		
		Cc1cc(F)c(N2C(=O)C(C)(C)C(=O)N2Cc2ccccc2)cc1SCC(F)(F)F [Example 178]		3.80	3.76	100%		
		Cc1ccc(-n2c(=O)n(C3CC3)c(=O)n2C(C)C)cc1SCC(F)(F)F [Example 63]		3.65	3.57	90%		

SMILES	chromatographic logP [2, 5]	chromatographic logP [2, 6]	efficacy in % [1, 3]	logP (HCOOH) [2]	logP (neutral) [2]	efficacy in % [1, 4]	pest or weed control at 500 g/ha [1, 4]	pest or weed control at 500 g/ha [1]
Cc1cc(C)c(N2CCNC2=O)cc1SCC(F)(F)F [Example 1, 1-{2,4-Dimethyl-5-[(2,2,2-trifluoroethyl)sulfanyl]phenyl}imidazolidin-2-one]	2.43	2.39						90%
